Laboratory results taken from the NIST ThermoML archive (doi:10.1021/je0497698).
± gives the expanded uncertainty stated by the source.

Settings: Liquid

Structure (SMILES) | vapor or sublimation pressure (273.15 K) | vapor or sublimation pressure (283.15 K) | vapor or sublimation pressure (293.15 K) | vapor or sublimation pressure (303.15 K) | vapor or sublimation pressure (313.15 K)
C=CC [propene] | 587.8 ± 2.1 kPa | 781.2 ± 2.1 kPa | 1020.2 ± 2.2 kPa | 1308.2 ± 2.3 kPa | 1650.8 ± 2.5 kPa
FCF [difluoromethane] | 816.8 ± 2.2 kPa | 1111.8 ± 2.2 kPa | 1480.2 ± 2.4 kPa | 1930.4 ± 2.5 kPa | 2478 ± 2.8 kPa
